In patent publication US11548880B2, “Modulators of hemoglobin” (Global Blood Therapeutics, Inc., priority 2018, dated 2023):

Molecular target: T1, Hb (Homo sapiens, UniProt P68871+P69905)
T1 construct: from tissue; host or cells: whole blood
Assay: Whole blood assay: oxygen equilibrium curves (Hemox Analyzer), change in p50
Assay type: cell-based
Details: whole blood incubated 1 h at 37° C., equimolar ratio of hemoglobin to compound
Description: Whole blood assay: Oxygen equilibrium curves (OECs) were collected using a TCS Hemox Analyzer (TCS Scientific Company, New Hope, Pa., USA) to measure changes in the binding affinity of O2 to Hb. Whole blood was incubated for 1 h at 37° C. with the indicated compounds in an equimolar ratio of hemoglobin to compound and diluted into TES (2-[[1,3-dihydroxy-2-(hydroxymethyl)propan-2-yl]amino]ethanesulfonic acid)/saline buffer prior to measurements. For example, for whole blood at 20% hematocrit [Hct], which corresponds to 1 mM Hb, a compound concentration of 1 mM was used (for example, for compounds 1-5), and the incubated sample diluted 50- to 100-fold. The concentration for compounds 6-44 (Diastereomers 1 and 2) varied but remained in equimolar ratio to hemoglobin. The diluted samples were then oxygenated with compressed air within the Hemox Analyzer and the OECs were collected during deoxygenation as previously described (Guarnone et al., Haematologica, 1995, 80, 426-430). p 50 (partial pressure of O2 at which Hb is 50% saturated with O2) values were obtained using a non-linear regression analysis. Percentage change in p50 [Δp50(%)] was calculated as follows: Δp50(%)=[(p50 of control)−p50 with compound)/p50 control]×100.

T1 sequence (P69905 2-142 limits assumed): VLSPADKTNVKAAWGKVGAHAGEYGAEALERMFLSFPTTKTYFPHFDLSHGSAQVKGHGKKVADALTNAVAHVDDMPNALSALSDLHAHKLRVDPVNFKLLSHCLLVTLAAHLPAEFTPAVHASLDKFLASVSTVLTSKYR
T1 sequence (P68871 2-147 limits assumed): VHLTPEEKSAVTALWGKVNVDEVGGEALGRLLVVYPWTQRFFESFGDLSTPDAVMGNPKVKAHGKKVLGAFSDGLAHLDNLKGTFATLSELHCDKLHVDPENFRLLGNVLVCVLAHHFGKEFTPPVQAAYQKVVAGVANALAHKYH

SMILES	Delta-p50 (%)
O=Cc1c(O)cccc1OCC1CSCCN1C(=O)c1cccnc1CCO (single isomer, unassigned) [10 (Enantiomer 1), 2-hydroxy-6-((4-(2-(2-hydroxyethyl)nicotinoyl)-thiomorpholin-3-yl)-methoxy)benzaldehyde]	65.6%
O=Cc1c(O)cccc1OCC1CSCCN1C(=O)c1cccnc1CO (single isomer, unassigned) [13 (Enantiomer 2), 2-hydroxy-6-((4-(2-(hydroxymethyl)nicotinoyl)-thiomorpholin-3-yl)-methoxy)benzaldehyde]	61.0%
O=Cc1c(O)cccc1OC[C@@H]1CCCCN1C(=O)c1ccccc1C(O)CO (single isomer, unassigned) [34 (Diastereomer 1)]	80.43%
O=Cc1c(O)cccc1OC[C@@H]1CCCCN1C(=O)c1ccccc1C(O)CO (single isomer, unassigned) [34 (Diastereomer 2)]	81.59%
O=Cc1c(O)cccc1OCC1CSCCN1C(=O)c1ccccc1CO (single isomer, unassigned) [40 (Enantiomer 1), 2-hydroxy-6-((4-(2-(hydroxymethyl)benzoyl)-thiomorpholin-3-yl)-methoxy)benzaldehyde]	64.31%
CC(O)c1ncccc1C(=O)N1CCOC[C@H]1COc1cccc(O)c1C=O (single isomer, unassigned) [41 (Diastereomer 1)]	66.71%
CC(O)c1ncccc1C(=O)N1CCOC[C@H]1COc1cccc(O)c1C=O (single isomer, unassigned) [41 (Diastereomer 2)]	53.94%
CC(O)Cc1ncccc1C(=O)N1CCOC[C@H]1COc1cccc(O)c1C=O (single isomer, unassigned) [42 (Diastereomer 1)]	76.39%
CC(O)Cc1ncccc1C(=O)N1CCOC[C@H]1COc1cccc(O)c1C=O (single isomer, unassigned) [42 (Diastereomer 2)]	75.05%
CC(O)c1ncccc1C(=O)N1CCSC[C@H]1COc1cccc(O)c1C=O (single isomer, unassigned) [43 (Diastereomer 1)]	64.50%
CC(O)c1ncccc1C(=O)N1CCSC[C@H]1COc1cccc(O)c1C=O (single isomer, unassigned) [43 (Diastereomer 2)]	64.56%
CC(O)Cc1ncccc1C(=O)N1CCSC[C@H]1COc1cccc(O)c1C=O (single isomer, unassigned) [44 (Diastereomer 1)]	66.57%
CC(O)Cc1ncccc1C(=O)N1CCSC[C@H]1COc1cccc(O)c1C=O (single isomer, unassigned) [44 (Diastereomer 2)]	54.34%
COCCc1ncccc1C(=O)N1CCCC[C@H]1COc1cccc(O)c1C=O [Compound 2, (S)-2-hydroxy-6-((1-(2-(2-methoxyethyl)nicotinoyl)piperidin-2-yl)methoxy)benzaldehyde]	84.4%
N#CCCc1ncccc1C(=O)N1CCCC[C@H]1COc1cccc(O)c1C=O [Compound 3, (S)-3-(3-(2-((2-formyl-3-hydroxyphenoxy)methyl)piperidine-1-carbonyl)pyridin-2-yl)propanenitrile]	85.8%
O=Cc1c(O)cccc1OC[C@@H]1CCCCN1C(=O)c1cccnc1CCN1CCCC1 [Compound 4, (S)-2-hydroxy-6-((1-(2-(2-(pyrrolidin-1-yl)ethyl)nicotinoyl)piperidin-2-yl)methoxy)benzaldehyde]	75.5%
O=Cc1c(O)cccc1OC[C@@H]1CCCCN1C(=O)c1ccccc1CO [Compound 5, (S)-2-hydroxy-6-((1-(2-(hydroxymethyl)benzoyl)piperidin-2-yl)methoxy)benzaldehyde]	81.0%
O=Cc1c(O)cccc1OC[C@@H]1CCCCN1C(=O)c1ccccc1CCO [Compound 6, (S)-2-hydroxy-6-((1-(2-(2-hydroxyethyl)benzoyl)-piperidin-2-yl)methoxy)-benzaldehyde]	74.5%
O=Cc1c(O)cccc1OC[C@@H]1CCCCN1C(=O)c1nccnc1CCO [Compound 7, (S)-2-hydroxy-6-((1-(3-(2-hydroxyethyl)pyrazine-2-carbonyl)piperidin-2-yl)methoxy)benzaldehyde]	62.7%

SMILES	Delta-p50 (%)
O=Cc1c(O)cccc1OC[C@@H]1CCCN1C(=O)c1cccnc1CCO [Compound 9, (S)-2-hydroxy-6-((1-(2-(2-hydroxyethyl)-nicotinoyl)pyrrolidin-2-yl)methoxy)benzaldehyde]	62.2%
COCCc1ccccc1C(=O)N1CCCC[C@H]1COc1cccc(O)c1C=O [Compound 14, (S)-2-hydroxy-6-((1-(2-(2-methoxyethyl)benzoyl)piperidin-2-yl)methoxy)benzaldehyde]	74.56%
N#CCCc1ccccc1C(=O)N1CCCC[C@H]1COc1cccc(O)c1C=O [Compound 15, (S)-3-(2-(2-((2-formyl-3-hydroxyphenoxy)methyl)piperidine-1-carbonyl)phenyl)propanenitrile]	80.5%
O=Cc1c(O)cccc1OC[C@@H]1CCCCN1C(=O)c1ncccc1CCO [Compound 16, (S)-2-hydroxy-6-((1-(3-(2-hydroxyethyl)picolinoyl)piperidin-2-yl)methoxy)benzaldehyde]	49.55%
O=Cc1c(O)cccc1OC[C@@H]1CCCCN1C(=O)c1ccccc1CCN1CCCC1 [Compound 17, (S)-2-hydroxy-6-((1-(2-(2-(pyrrolidin-1-yl)ethyl)benzoyl)piperidin-2-yl)methoxy)benzaldehyde]	27.09%
O=Cc1c(O)cccc1OC[C@@H]1CCCCN1C(=O)c1cccnc1CCCO [Compound 18, (S)-2-hydroxy-6-((1-(2-(3-hydroxypropyl)nicotinoyl)-piperidin-2-yl)methoxy)-benzaldehyde]	79.67%
O=Cc1c(O)cccc1OC[C@@H]1CCCN1C(=O)c1nccnc1CCO [Compound 19, (S)-2-hydroxy-6-((1-(3-(2-hydroxyethyl)pyrazine-2-carbonyl)pyrrolidin-2-yl)methoxy)benzaldehyde]	54.67%
O=Cc1c(O)cccc1OC[C@@H]1COCCN1C(=O)c1nccnc1CCO [Compound 21, 2-hydroxy-6-{[(3S)-4-[3-(2-hydroxyethyl)pyrazine-2-carbonyl]morpholin-3-yl]methoxy}benzaldehyde]	60.21%
O=Cc1c(O)cccc1OC[C@@H]1COCCN1C(=O)c1ccccc1CCO [Compound 22, 2-hydroxy-6-{[(3S)-4-[2-(2-hydroxyethyl)benzoyl]morpholin-3-yl]methoxy}benzaldehyde]	70.32%
COCCc1ncccc1C(=O)N1CCC[C@H]1COc1cccc(O)c1C=O [Compound 24, 2-hydroxy-6-{[(2S)-1-[2-(2-methoxyethyl)pyridine-3-carbonyl]pyrrolidin-2-yl]methoxy}benzaldehyde]	65.51%
COCCc1nccnc1C(=O)N1CCC[C@H]1COc1cccc(O)c1C=O [Compound 25, 2-hydroxy-6-{[(2S)-1-[3-(2-methoxyethyl)pyrazine-2-carbonyl]pyrrolidin-2-yl]methoxy}benzaldehyde]	53.36%
O=Cc1c(O)cccc1OC[C@@H]1CCCN1C(=O)c1ccccc1CO [Compound 26, 2-hydroxy-6-{[(2S)-1-[2-(hydroxymethyl)benzoyl]pyrrolidin-2-yl]methoxy}benzaldehyde]	51.72%
COCCc1nccnc1C(=O)N1CCOC[C@H]1COc1cccc(O)c1C=O [Compound 27, 2-hydroxy-6-{[(3S)-4-[3-(2-methoxyethyl)pyrazine-2-carbonyl]morpholin-3-yl]methoxy}benzaldehyde]	66.58%
N#CCCc1ncccc1C(=O)N1CCOC[C@H]1COc1cccc(O)c1C=O [Compound 28, 3-{3-[(3S)-3-[(2-formyl-3-hydroxyphenoxy)methyl]morpholine-4-carbonyl]pyridin-2-yl}propanenitrile]	83.35%
COCCc1ccccc1C(=O)N1CCOC[C@H]1COc1cccc(O)c1C=O [Compound 29, 2-hydroxy-6-{[(3S)-4-[2-(2-methoxyethyl)benzoyl]morpholin-3-yl]methoxy}benzaldehyde]	78.79%
N#CCCc1ncccc1C(=O)N1CCC[C@H]1COc1cccc(O)c1C=O [Compound 30, (S)-3-(3-(2-((2-formyl-3-hydroxyphenoxy)methyl)-pyrrolidine-1-carbonyl)-pyridin-2-yl)propanenitrile]	74.19%
N#CCCc1ccccc1C(=O)N1CCOC[C@H]1COc1cccc(O)c1C=O [Compound 31, 3-{2-[(3S)-3-[(2-formyl-3-hydroxyphenoxy)methyl]morpholine-4-carbonyl]phenyl}propanenitrile]	74.03%
N#CCCc1nccnc1C(=O)N1CCOC[C@H]1COc1cccc(O)c1C=O [Compound 32, 3-{3-[(3S)-3-[(2-formyl-3-hydroxyphenoxy)methyl]morpholine-4-carbonyl]pyrazin-2-yl}propanenitrile]	60.55%
O=Cc1c(O)cccc1OC[C@@H]1COCCN1C(=O)c1nccnc1CO [Compound 33, 2-hydroxy-6-{[(3S)-4-[3-(hydroxymethyl)pyrazine-2-carbonyl]morpholin-3-yl]methoxy}benzaldehyde]	49.03%
